The results in this text go back to patent publication EP4707280A1, “1,4-CINEOLE DERIVATIVE AND INTERMEDIATE THEREOF, HERBICIDE CONTAINING SAID DERIVATIVE AS ACTIVE INGREDIENT, METHOD FOR USING HERBICIDE, AND METHOD FOR PREPARING AGROCHEMICAL COMPOSITION” (HOKKO CHEMICAL INDUSTRY CO., LTD., priority 2023, dated 2024).

For orientation: inhibition means the change of the read-out against control, counted positive when it falls.

Common to all, as to format: in vivo
Assay [1] has as its system Chenopodium album. In words: Test Example 4: herbicidal effect test by stem and leaf treatment in upland field. The settings on record: 120 g per 10 ares, sprayed seven days after sowing, upland soil, 14 days after application, read-out: weed inhibition rate.
In assay [2] the test system is Echinochloa crus-galli var. formosensis at the three-leaf stage. Briefly: Comparative Example: herbicidal effect test by application during growth period of paddy rice (three-leaf stage, Table 7). The following applies: 504 h, active ingredient 7.5 g per 10 ares, emulsifiable concentrate applied by dropper to flooded pots, 21 days after chemical application, triplicate, read-out: Weed inhibition rate (%). The method, then:
As an example, the herbicidal effect on Echinochloa crus-galli var. formosensis at the three-leaf stage was confirmed by the following method, and the results are specifically shown in Table 7 as a comparative example.
Wagner pots with an area of […] were filled with paddy soil, followed by addition of water and incorporation of chemical fertilizer (N:P:K = 16:16:16), after which puddling was performed. After that, 30 seeds of Echinochloa crus-galli var. formosensis were sown at a depth of 0 cm to 1 cm. Immediately after sowing, the pots were flooded and a water depth of approximately 3 cm was maintained. Subsequent management was conducted in a glass greenhouse. When Echinochloa crus-galli var. formosensis reached the three-leaf stage, an emulsifiable concentrate prepared according to Formulation Example 5 using the compound shown below was diluted with water, and a specified amount of the diluted solution was applied by dropper. The amount of the active ingredient to be applied was equivalent to 7.5 g per 10 ares. The test was conducted in triplicate for each chemical concentration group, and the weed inhibition rate (%) was determined 21 days after chemical application using the following formula (Math. 1).

Assay [3] concerns Lindernia pyxidaria. In words: Test Example 2: herbicidal effect test by application during growth period of paddy rice. The following applies: 120 g per 10 ares, applied seven days after sowing, flooded pots, 14 days after application, read-out: weed inhibition rate. The procedure, abridged: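 Herbicidal effect was scored 14 days after treatment, in duplicate per concentration. Weeds sown 0–1 cm deep in puddled, fertilized paddy soil under about 3 cm of standing water received a water-diluted emulsifiable concentrate by dropper 7 days post-sowing, at 120 g a.i. per 10 ares.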

In assay [4] the test system is Chenopodium album. In words: Test Example 8: herbicidal effect test by stem and leaf treatment in upland field (low dose). The following applies: 7.5 g per 10 ares, sprayed seven days after sowing, upland soil, 14 days after application, read-out: weed inhibition rate. The procedure, abridged:
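Duplicate alluvial-loam pots (36 cm^2), seeded in the top 1 cm and grown seven days, were sprayed with diluted emulsifiable concentrate at 7.5 g a.i. per 10 ares (100 L per 10 ares). Percent inhibition was assessed at 14 days post-treatment.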

For assay [5], the system named is Amaranthus viridis. Briefly: Test Example 4: herbicidal effect test by stem and leaf treatment in upland field. The following applies: 120 g per 10 ares, sprayed seven days after sowing, upland soil, 14 days after application, read-out: weed inhibition rate. The essentials:
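Read-out: weed inhibition rate (%), calculated 14 days post-application, each concentration group in duplicate. Treatment was a spray of diluted emulsifiable concentrate (100 liters per 10 ares; 120 g a.i. per 10 ares) onto pots sown 7 days earlier in alluvial loam.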

In assay [6] the test system is Lindernia pyxidaria. Briefly: Test Example 5: herbicidal effect test by soil application in paddy rice (low dose). The settings on record: 336 h, 7.5 g per 10 ares, applied immediately after sowing, flooded pots, 14 days after application, read-out: weed inhibition rate. The procedure, abridged:
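Dose of 7.5 g a.i. per 10 ares, applied by dropper as diluted emulsifiable concentrate to flooded (~3 cm) paddy pots immediately after sowing seeds at 0–1 cm. Kept in a glass greenhouse; duplicate pots rated at 14 days post-application.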

The test system of assay [7] is Amaranthus viridis. In words: Test Example 7: herbicidal effect test by soil application in upland field (low dose). The settings on record: read-out: weed inhibition rate.
The mark [8] stands for this setting: 7.5 g per 10 ares, sprayed one day after sowing, upland soil, 14 days after application.

SMILES strings stand for the structures. Like-named read-outs stand apart in the source and are kept apart here. Bounds are passed on as bounds.

As to `CC(C)[C@]12C[C@@H](OCc3ccccc3F)[C@](C)(C[C@@H]1F)O2` [1-5, (1R,2S,4S,5R)-2-fluoro-5-((2-fluorobenzyl)oxy)-1-isopropyl-4-methyl-7-oxabicyclo[2.2.1]heptane], the inhibition at 1200 g/ha in the assay with Chenopodium album [1] was not below 80%. Also, the inhibition at 75 g/ha in assay [2] was 100%.

As to `CC(C)[C@]12C[C@@H](OCc3ccccc3)[C@](C)(C[C@@H]1Br)O2` [1-15, (1S,2R,4R,5S)-5-bromo-1-methyl-2-phenylmethoxy-4-isopropyl-7-oxabicyclo[2.2.1]heptane], the inhibition at 75 g/ha in assay [2] is 80%.

`CC(C)[C@]12C[C@@H](OCc3ccccc3F)[C@](C)(C[C@@H]1Br)O2` [1-19, (1S,2R,4R,5S)-5-bromo-2-[(2-fluorophenyl)methoxy]-1-methyl-4-isopropyl-7-oxabicyclo[2.2.1]heptane]: the inhibition at 1200 g/ha with Lindernia pyxidaria [3] and with Chenopodium album [1] was not below 80% each time. In addition, the inhibition at 75 g/ha in assay [2] came out at 88%.

Take `CC(C)[C@]12C[C@@H](OCc3c(F)cccc3F)[C@](C)(C[C@@H]1Br)O2` [1-21, (1S,2R,4R,5S)-5-bromo-2-[(2,6-difluorophenyl)methoxy]-1-methyl-4-isopropyl-7-oxabicyclo[2.2.1]heptane]: the inhibition at 75 g/ha in assay [2] is 93%.

As for `Cc1ccccc1CO[C@@H]1C[C@]2(C(C)C)O[C@@]1(C)CC2C` (stereo partly drawn) [1-83, (1S,2R,4R)-4-isopropyl-1,5-dimethyl-2-((2-methylbenzyl)oxy)-7-oxabicyclo[2.2.1]heptane], the inhibition at 1200 g/ha in the assay with Chenopodium album [1] is not below 80%. Moreover, the inhibition at 75 g/ha in assay [2] is 99%.

On to `CC(C)[C@]12C[C@@H](OCc3ccccc3F)[C@](C)(CC1C)O2` (stereo partly drawn) [1-92, (1S,2R,4R)-2-((2-fluorobenzyl)oxy)-4-isopropyl-1,5-dimethyl-7-oxabicyclo[2.2.1]heptane], for which the inhibition at 75 g/ha with Chenopodium album [4] was not below 80%; in assay [2], 100%. Besides, the inhibition at 1200 g/ha in the assay on Chenopodium album [1] and in the assay on Amaranthus viridis [5] was not below 80% throughout.

`CC(C)[C@]12C[C@@H](OCc3c(F)cccc3F)[C@](C)(CC1C)O2` (stereo partly drawn) [1-111, (1S,2R,4R)-2-((2,6-difluorobenzyl)oxy)-4-isopropyl-1,5-dimethyl-7-oxabicyclo[2.2.1]heptane]: the inhibition at 75 g/ha in assay [2] turned out to be 100%.

On to `CCC1C[C@]2(C)O[C@@]1(C(C)C)C[C@H]2OCc1ccccc1F` (stereo partly drawn) [1-126, (1R,4S,5R)-2-ethyl-5-[(2-fluorobenzyl)oxy]-1-isopropyl-4-methyl-7-oxabicyclo[2.2.1]heptane], for which the inhibition at 75 g/ha in assay [2] stood at 100%.

For `CCO[C@H]1C[C@]2(C)O[C@@]1(C(C)C)C[C@H]2OCc1ccccc1F` [1-183, (1S,2R,4R,5S)-5-ethoxy-2-[(2-fluorophenyl)methoxy]-1-methyl-4-isopropyl-7-oxabicyclo[2.2.1]heptane], in assay [2], the inhibition at 75 g/ha is 93%.

Turning to `CC(C)[C@]12C[C@@H](OCc3ccccc3F)[C@](C)(C[C@@H]1OCc1ccccc1F)O2` [1-603, (1S,2R,4R,5S)-2,5-bis[(2-fluorophenyl)methoxy]-1-methyl-4-isopropyl-7-oxabicyclo[2.2.1]heptane], the inhibition at 75 g/ha in the assay with Lindernia pyxidaria [6] is not below 80%. In addition, in the assay with Chenopodium album [1], the inhibition at 1200 g/ha is not below 80%.

For `CC(C)=CCO[C@@H]1C[C@]2(C(C)C)O[C@@]1(C)C[C@@H]2Br` [1-672, (1S,2R,4R,5S)-5-bromo-1-methyl-2-(3-methylbut-2-enoxy)-4-isopropyl-7-oxabicyclo[2.2.1]heptane], in the assay with Lindernia pyxidaria [3], the inhibition at 1200 g/ha is not below 80%.

With `CC(C)[C@]12C[C@@H](OCc3ccccc3Br)[C@](C)(C[C@@H]1Br)O2` [1-694, (1S,2R,4R,5S)-5-bromo-2-[(2-bromophenyl)methoxy]-1-methyl-4-isopropyl-7-oxabicyclo[2.2.1]heptane], the inhibition at 75 g/ha in the assay on Amaranthus viridis [7] (setting [8]) was not below 80%.

`CC(C)[C@]12C[C@@H](OCc3ccccc3C#N)[C@](C)(C[C@@H]1Br)O2` [1-703, 2-[[(1S,2R,4R,5S)-5-bromo-1-methyl-4-isopropyl-7-oxabicyclo[2.2.1]heptan-2-yl]oxymethyl]benzonitrile]: the inhibition at 1200 g/ha in the assay on Lindernia pyxidaria [3] is not below 80%.

On to `Cc1ccccc1CO[C@@H]1C[C@]2(C(C)C)O[C@@]1(C)C[C@@H]2I` [1-741, (1S,2R,4R,5S)-5-iodo-1-methyl-2-[(2-methylphenyl)methoxy]-4-isopropyl-7-oxabicyclo[2.2.1]heptane], for which the inhibition at 75 g/ha in the assay on Lindernia pyxidaria [6] is not below 80%.

In the case of `CC(C)[C@]12C[C@@H](OCc3ccccc3F)[C@](C)(C[C@@H]1I)O2` [1-753, (1S,2R,4R,SS)-2-[(2-fluorophenyl)methoxy]-5-iodo-1-methyl-4-isopropyl-7-oxabicyclo[2.2.1]heptane], the values for the inhibition at 75 g/ha (in the assay on Amaranthus viridis [7] (soil); in assay [2]) were not below 80% and 93%, respectively.

With `COC1(OC)C[C@]2(C)O[C@@]1(C(C)C)C[C@H]2OCc1ccccc1F` [1-935, (1R,4S,5R)-5-((2-fluorobenzyl)oxy)-1-isopropyl-2,2-dimethoxy-4-methyl-7-oxabicyclo[2.2.1]heptane], the inhibition at 1200 g/ha with Lindernia pyxidaria [3] was not below 80%.

Regarding `C=CCO[C@H]1C[C@]2(C)O[C@@]1(C(C)C)C[C@H]2OCc1ccccc1F` [1-1602, (1S,2R,4R,5S)-2-[(2-fluorophenyl)methoxy]-1-methyl-4-isopropyl-5-prop-2-enoxy-7-oxabicyclo[2.2.1]heptane], the inhibition at 75 g/ha in assay [2] amounted to 82%.

As to `Cc1ccccc1CO[C@@H]1C[C@]2(C(C)C)O[C@@]1(C)CC2=O` [2-3, (1R,4S,5R)-1-isopropyl-4-methyl-5-((2-methylbenzyl)oxy)-7-oxabicyclo[2.2.1]heptan-2-one], the inhibition at 1200 g/ha in the assay with Lindernia pyxidaria [3] and in the assay with Chenopodium album [1] was not below 80% each time.

Turning to `Cc1cccc(C)c1CO[C@@H]1C[C@]2(C(C)C)O[C@@]1(C)CC2=O` [2-5, (1R,4S,5R)-5-((2,6-dimethylbenzyl)oxy)-1-isopropyl-4-methyl-7-oxabicyclo[2.2.1]heptan-2-one], the inhibition at 1200 g/ha in the assay with Lindernia pyxidaria [3] is not below 80%. Further, the inhibition at 75 g/ha in the assay with Lindernia pyxidaria [6] was not below 80%.

Turning to `CC(C)[C@]12C[C@@H](OCc3ccccc3Cl)[C@](C)(CC1=O)O2` [2-11, (1R,4S,5R)-5-((2-chlorobenzyl)oxy)-1-isopropyl-4-methyl-7-oxabicyclo[2.2.1]heptan-2-one], the inhibition at 1200 g/ha in the assay on Lindernia pyxidaria [3] was not below 80%.

As to `CC(C)[C@]12C[C@@H](OCc3c(F)cccc3F)[C@](C)(CC1=O)O2` [2-20, (1R,4S,5R)-5-((2,6-difluorobenzyl)oxy)-1-isopropyl-4-methyl-7-oxabicyclo[2.2.1]heptan-2-one], the inhibition at 1200 g/ha with Lindernia pyxidaria [3] and in the assay with Amaranthus viridis [5] was not below 80% each time. Moreover, the inhibition at 75 g/ha in the assay on Lindernia pyxidaria [6] was not below 80%.

For `Cc1ccccc1CO[C@@H]1C[C@]2(C(C)C)O[C@@]1(C)C/C2=N\O` [2-191, (1R,4S,5R,E)-1-isopropyl-4-methyl-5-((2-methylbenzyl)oxy)-7-oxabicyclo[2.2.1]heptan-2-one oxime], the inhibition at 1200 g/ha in the assay with Amaranthus viridis [5] was not below 80%.

For `CC(C)[C@]12C[C@@H](OCc3ccccc3F)[C@](C)(C/C1=N\O)O2` [2-197, (1R,4S,5R,E)-5-((2-fluorobenzyl)oxy)-1-isopropyl-4-methyl-7-oxabicyclo[2.2.1]heptan-2-one oxime], the inhibition at 1200 g/ha with Amaranthus viridis [5] was not below 80%.

As for `CC(C)[C@]12C[C@@H](OCc3ccc(F)cc3)[C@](C)(CC1=O)O2` [2-349, (1R,4S,5R)-5-((4-fluorobenzyl)oxy)-1-isopropyl-4-methyl-7-oxabicyclo[2.2.1]heptan-2-one], the inhibition at 1200 g/ha in the assay on Lindernia pyxidaria [3] and with Amaranthus viridis [5] was not below 80% throughout.

For the compound `CC(C)[C@]12C[C@@H](OCc3cccc(F)c3)[C@](C)(CC1=O)O2` [2-351, (1R,4S,5R)-5-((3-fluorobenzyl)oxy)-1-isopropyl-4-methyl-7-oxabicyclo[2.2.1]heptan-2-one], the inhibition at 1200 g/ha in the assay on Lindernia pyxidaria [3] and in the assay with Chenopodium album [1] was not below 80% in each case.

For the compound `Cc1ccccc1CO[C@@H]1C[C@@]2(C(C)C)C=C[C@]1(C)O2` [3-2, (1R,4S,5R)-4-methyl-5-[(2-methylphenyl)methoxy]-1-isopropyl-7-oxabicyclo[2.2.1]hept-2-ene], the inhibition at 75 g/ha with Amaranthus viridis [7] (setting [8]) was not below 80%.
